Like-named read-outs stand apart in the source and are kept apart here.
Molecular target: T1, Androgen Receptor (Homo sapiens, UniProt P10275)
T1 construct: endogenous in cells; host or cells: VCaP cells
T1 sequence (P10275 1-920): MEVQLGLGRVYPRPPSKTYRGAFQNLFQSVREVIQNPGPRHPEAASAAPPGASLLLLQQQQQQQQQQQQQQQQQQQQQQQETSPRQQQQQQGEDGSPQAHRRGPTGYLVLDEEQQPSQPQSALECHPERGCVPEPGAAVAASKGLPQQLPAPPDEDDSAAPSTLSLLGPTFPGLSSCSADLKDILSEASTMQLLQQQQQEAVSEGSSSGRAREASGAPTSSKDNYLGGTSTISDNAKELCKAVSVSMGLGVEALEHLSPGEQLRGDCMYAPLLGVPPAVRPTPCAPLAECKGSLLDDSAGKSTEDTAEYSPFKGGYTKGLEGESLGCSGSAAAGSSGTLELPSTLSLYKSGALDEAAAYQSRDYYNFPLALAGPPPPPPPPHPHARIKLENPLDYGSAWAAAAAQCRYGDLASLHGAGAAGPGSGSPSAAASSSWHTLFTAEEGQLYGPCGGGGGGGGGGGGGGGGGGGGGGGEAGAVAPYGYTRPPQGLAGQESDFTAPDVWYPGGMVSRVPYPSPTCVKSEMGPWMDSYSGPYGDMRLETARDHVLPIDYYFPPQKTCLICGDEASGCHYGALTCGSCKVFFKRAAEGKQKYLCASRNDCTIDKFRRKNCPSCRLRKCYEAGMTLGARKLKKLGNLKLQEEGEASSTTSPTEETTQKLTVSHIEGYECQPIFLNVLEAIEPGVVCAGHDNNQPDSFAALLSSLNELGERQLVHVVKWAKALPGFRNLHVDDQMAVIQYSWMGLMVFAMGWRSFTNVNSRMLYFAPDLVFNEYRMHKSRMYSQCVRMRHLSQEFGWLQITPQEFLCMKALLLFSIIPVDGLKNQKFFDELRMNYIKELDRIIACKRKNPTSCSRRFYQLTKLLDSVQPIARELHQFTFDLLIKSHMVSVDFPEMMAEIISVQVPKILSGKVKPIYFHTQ
Assay: Androgen Receptor ELISA assay (PathScan AR ELISA) in VCaP cells: AR degradation, Dmax and DC50
Format: cell-based
Method in brief: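 VCaP cells, 30,000/well, grown ≥3 days in phenol red-free RPMI with 5% charcoal-stripped FBS; compound added in 0.1% DMSO with 0.1 nM R1881, 7 half-log doses, 24 h. Lysate AR quantified by PathScan sandwich ELISA, HRP/TMB read at 450 nm, giving DC50 and Dmax.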

[1] = VCaP cells; Table 34; read-out: VCaP DC50
[2] = VCaP, VCaP cells; Table 34; read-out: VCaP Dmax (%)
[3] = read-out: VCaP DC50; VCaP cells; Table 34

Row | DC50 [1] | Dmax [2] | SMILES | Dmax (VCaP, read-out: VCaP Dmax (%)) | DC50 [3]
1 |  |  | Cc1ncsc1-c1ccc(CNC(=O)[C@@H]2C[C@@H](O)CN2C(=O)C(C(C)C)n2cccc(OCCCCOc3ccc(-c4ccc(N5C(=S)N(c6ccc(C#N)c(C(F)(F)F)c6)C(=O)C5(C)C)cc4)cc3)c2=O)cc1 (stereo partly drawn) [Example 395] | < 25% | 
2 | < 50 nM | 26 to 50% | Cc1ncsc1-c1ccc(CNC(=O)[C@@H]2C[C@@H](O)CN2C(=O)[C@@H](NC(=O)COCCCCNC(=O)c2ccc(C(=O)N[C@H]3C(C)(C)[C@H](Oc4ccc(C#N)c(Cl)c4)C3(C)C)cc2)C(C)(C)C)cc1 [Example 398] |  | 
3 |  |  | Cc1ncoc1-c1ccc(CNC(=O)[C@@H]2C[C@@H](O)CN2C(=O)[C@@H](NC(=O)COCCCCOc2ccc(-c3ccc(N4C(=S)N(c5ccc(C#N)c(C(F)(F)F)c5)C(=O)C4(C)C)cc3F)cc2)C(C)(C)C)cc1 [Example 399] | > 71% | < 50 nM
4 |  |  | Cc1ncsc1-c1ccc(CNC(=O)[C@@H]2C[C@@H](O)CN2C(=O)[C@@H](NC(=O)COCCCCOc2ccc(-c3ccc(N4C(=S)N(c5ccc(C#N)c(C(F)(F)F)c5)C(=O)C4(C)C)cc3F)cc2)C(C)(C)C)cc1 [Example 400] | > 71% | < 50 nM
5 |  |  | Cc1ncsc1-c1ccc([C@H](C)NC(=O)[C@@H]2C[C@@H](O)CN2C(=O)[C@@H](NC(=O)COCCCCOc2ccc(-c3ccc(N4C(=S)N(c5ccc(C#N)c(C(F)(F)F)c5)C(=O)C4(C)C)cn3)cn2)C(C)(C)C)cc1 [Example 401] | > 71% | < 50 nM
6 |  |  | Cc1ncoc1-c1ccc(CNC(=O)[C@@H]2C[C@@H](O)CN2C(=O)[C@@H](NC(=O)COCCCNC(=O)c2ccc(-c3ccc(N4C(=S)N(c5ccc(C#N)c(C(F)(F)F)c5)C(=O)C4(C)C)cc3)cc2)C(C)(C)C)cc1 [Example 402] | 51 to 70% | < 50 nM
7 |  |  | Cc1ncsc1-c1ccc(CNC(=O)[C@@H]2C[C@@H](O)CN2C(=O)[C@@H](NC(=O)COCCCCOc2ccc(-c3ccc(N4C(=S)N(c5ccc(C#N)c(C(F)(F)F)c5)C(=O)C4(C)C)cc3)c(O)c2)C(C)(C)C)cc1 [Example 403] | 51 to 70% | < 50 nM
8 | < 50 nM | > 71% | Cc1ncsc1-c1ccc(CNC(=O)[C@@H]2C[C@@H](O)CN2C(=O)[C@@H](NC(=O)COCCC2CCN(c3ccc(C(=O)N[C@H]4C(C)(C)[C@H](Oc5ccc(C#N)c(Cl)c5)C4(C)C)cc3)CC2)C(C)(C)C)cc1 [Example 404] |  | 
9 | < 50 nM | > 71% | Cc1ncsc1-c1ccc(CNC(=O)[C@@H]2C[C@@H](O)CN2C(=O)[C@@H](NC(=O)CO[C@H](C)c2ccc(Oc3ccc(C(=O)N[C@H]4C(C)(C)[C@H](Oc5ccc(C#N)c(Cl)c5)C4(C)C)cc3)cc2)C(C)(C)C)cc1 [Example 405] |  | 
10 | < 50 nM | > 71% | Cc1ncsc1-c1ccc(CNC(=O)[C@@H]2C[C@@H](O)CN2C(=O)[C@@H](NC(=O)CO[C@@H](C)c2ccc(Oc3ccc(C(=O)N[C@H]4C(C)(C)[C@H](Oc5ccc(C#N)c(Cl)c5)C4(C)C)cc3)cc2)C(C)(C)C)cc1 [Example 406] |  | 
11 | < 50 nM | 51 to 70% | CC(C)(C)[C@H](NC(=O)COCCCCOc1ccc(C(=O)N[C@H]2C(C)(C)[C@H](Oc3ccc(C#N)c(Cl)c3)C2(C)C)cc1)C(=O)N1C[C@H](O)C[C@H]1C(=O)NCc1ccc(-c2ccccc2)cc1 [Example 407] |  | 
12 |  |  | Cc1ncsc1-c1ccc(CNC(=O)[C@@H]2C[C@@H](O)CN2C(=O)[C@@H](NC(=O)COCCCCOc2ccc(-c3ccc(N4C(=S)N(c5ccc(C#N)c(C(F)(F)F)c5)C(=O)C4(C)C)cc3)cc2O)C(C)(C)C)cc1 [Example 408] | 51 to 70% | < 50 nM
13 | < 50 nM | 51 to 70% | Cc1ncsc1-c1ccc(CNC(=O)[C@@H]2C[C@@H](O)CN2C(=O)[C@@H](NC(=O)COCCCNC(=O)c2ccc(C(=O)N[C@H]3C(C)(C)[C@H](Oc4ccc(C#N)c(Cl)c4)C3(C)C)cc2)C(C)(C)C)cc1 [Example 409] |  | 
14 | < 50 nM | > 71% | Cc1ncsc1-c1ccc(CNC(=O)[C@@H]2C[C@@H](O)CN2C(=O)[C@@H](NC(=O)COCC2CCN(c3ccc(C(=O)N[C@H]4C(C)(C)[C@H](Oc5ccc(C#N)c(Cl)c5)C4(C)C)cc3)CC2)C(C)(C)C)cc1 [Example 410] |  | 
